Experimental data taken from patent US12070502B2, “Process for reducing subvisible particles in a pharmaceutical formulation” (Regeneron Pharmaceuticals, Inc., priority 2014, dated 2024).

Key:
[1] = system: polysorbate degrading activity; test: Reduction of polysorbate 20 degradation by lipase inhibitors; type: biochemical, CHO cell; conditions: relative to control without inhibitor
From the text: Polysorbate degradation activity was followed during HIC purification of an exemplar antibody produced in CHO cell culture. Partially purified CHO cell extract was applied to HIC (phenyl-sepharose). The flow-through, which contained almost all of the antibody, was collected and analyzed for polysorbate degradation activity. […] The HIC bound fraction was stripped from the HIC media and subsequently subjected to 100 kDa cut-off ultrafiltration/diafiltration. The unfiltered stripped fraction contained 9.9% polysorbate degradation activity, the filter permeate contained 1.3% polysorbate degradation activity and 5% antibody yield, and the filter retentate contained 7.4% polysorbate degradation activity and 95% antibody yield.
Whether the polysorbate degrading activity is a lipase was tested by combining a lipase inhibitor with the polysorbate degrading activity fraction spiked with polysorbate 20. Table 12 presents the data showing a reduction of polysorbate degrading activity due to lipase inhibitor relative to the control (antibody with associated polysorbate degrading activity plus polysorbate 20 without lipase inhibitor).

[2] = Stability of polysorbate 20 / polysorbate 80 esters in 150 mg/mL antibody (mAb1) formulation by mass spectroscopy; conditions: for Percent Ester Degradation: 150 mg/mL antibody (mAb1) formulation; for percent remaining esters, Diester / percent remaining esters, Monoester: 150 mg/mL mAb1, 0.02% detergent, no HIC (process 3)
Protocol: The stability of polysorbate 20 and polysorbate 80 in the 150 mg/mL antibody (mAb1) formulation containing 0.02% non-ionic detergent (polysorbate) prepared without HIC [process 3, see below and Table 8]) were compared, under the hypothesis that degradation of the fatty acid ester promotes protein instability and consequent SVP formation. The relative amounts of remaining esters (mono- and di-esters) were determined by mass spectroscopy.
The rates of degradation of polysorbate 20 and polysorbate 80 formulated with 150 mg/mL antibody (mAb1) (as described above for Table 5) were determined under identical conditions using mass spectroscopy to measure relative amounts of free fatty acids and fatty acid esters. Percent ester degradation was determined using the following formula:
[formula] wherein T0=time zero, T1=time at experimental condition (i.e., 2 months at 45° C.; 6 months at 5° C.), and POE=polyoxyethylene. […]
The time point samples were analyzed using an anion exchange column (Oasis MAX column, 30 μm, 2.1 mm×20 mm; Waters Corporation, Milford, Mass.) followed at t=5 minutes with reverse phase chromatography (ACQUITY UPLC® BEH 130 C4 column, 1.7 μm, 2.1 mm×50 mm; Waters Corporation, Milford, Mass.). The reverse phase output was connected to a mass spectrometer (Thermo Q-Exactive mass spectrometer; Thermo Fisher Scientific, Inc., Wilmington, Del.). The chromatographic conditions are described in Table 11.
The system was equilibrated with 99% mobile phase A (0.1% formic acid in water) at a flow rate of 0.1 mL/minute for 40 minutes prior to first injection. Water was used as a blank injection. The mass spectrometer parameters were as follows: mass range 150-2000 m/z; heater temperature at 250° C.; voltage 3.8 kv; sheath gas 40; auxiliary gas 10; capillary temperature 350° C.; and S-lens 50.

CCCCOc1ccccc1B(O)O [2-Butoxyphenyl boronic acid, 2-butoxyphenylboronic acid]
Percent Reduction in Polysorbate 20 Degradation ([1]; 0.001 mM lipase inhibitor): 0% | Percent Reduction in Polysorbate 20 Degradation ([1]; 0.01 mM lipase inhibitor): 28% | Percent Reduction in Polysorbate 20 Degradation ([1]; 0.1 mM lipase inhibitor): 0%

CCCCCCCCCCC[C@@H](C[C@@H]1OC(=O)[C@H]1CCCCCC)OC(=O)[C@H](CC(C)C)NC=O [Orlistat, orlistat]
Percent Reduction in Polysorbate 20 Degradation ([1]; 0.001 mM lipase inhibitor): 0% | Percent Reduction in Polysorbate 20 Degradation ([1]; 0.01 mM lipase inhibitor): 27.8% | Percent Reduction in Polysorbate 20 Degradation ([1]; 0.1 mM lipase inhibitor): 67%

O=C(Nc1cccc(-c2ccccc2)c1)OC1CCCCC1 [URB602, [1-1′-biphenyl]-3-tl-carbamicacid cyclohexyl ester]
Percent Reduction in Polysorbate 20 Degradation ([1]; 0.001 mM lipase inhibitor): 0% | Percent Reduction in Polysorbate 20 Degradation ([1]; 0.01 mM lipase inhibitor): 20% | Percent Reduction in Polysorbate 20 Degradation ([1]; 0.1 mM lipase inhibitor): 0%

diethylumbelliferyl phosphate
Percent Reduction in Polysorbate 20 Degradation ([1]; 0.001 mM lipase inhibitor): 48% | Percent Reduction in Polysorbate 20 Degradation ([1]; 0.01 mM lipase inhibitor): 100% | Percent Reduction in Polysorbate 20 Degradation ([1]; 0.1 mM lipase inhibitor): >95%

polysorbate 20 [PS20]
Percent Ester Degradation ([2]; 2 months at 45° C.): 63% | percent remaining esters, Diester ([2]; 2 months at 45° C.): 10% | percent remaining esters, Monoester ([2]; 2 months at 45° C.): 30% | Percent Ester Degradation ([2]; 6 months at 5° C.): 22% | percent remaining esters, Diester ([2]; 6 months at 5° C.): 30% | percent remaining esters, Monoester ([2]; 6 months at 5° C.): 60% | Percent Ester Degradation ([2]; Time zero): 0% | percent remaining esters, Diester ([2]; Time zero): 100% | percent remaining esters, Monoester ([2]; Time zero): 100%
